# Results from ChEMBL document CHEMBL2057161, “Synthesis and evaluation of nitric oxide-releasing DDB derivatives as potential Pgp-mediated MDR reversal agents in MCF-7/Adr cells” (Bioorg Med Chem Lett, 2012).
# Calls of active or inactive are those of the source. The rule behind the calls is not given here.
# Experiments:
# HepG2 = assay: Antiproliferative activity against human HepG2 cells after 48 hrs by MTT assay; assay type: functional, cell-based; conditions: HepG2, 48 h
# [1] = target: T1, ATP-dependent translocase ABCB1 (Homo sapiens, UniProt P08183); assay: Inhibition of P-glycoprotein overexpressed in human MCF7/ADR cells assessed as increase in doxorubicin accumulation at 25 uM incubated for 1.5 hrs prior to doxorubicin treatment measured after 1.5 hrs by HPLC analysis; assay type: cell-based; conditions: nci/adr-res
# [2] = target: T1, ATP-dependent translocase ABCB1; assay: Inhibition of P-glycoprotein in human MCF7/ADR cells assessed as potentiation of doxorubicin antiproliferative activity after 48 hrs by MTT assay; assay type: cell-based; conditions: nci/adr-res
# [3] = target: T1, ATP-dependent translocase ABCB1; assay: Inhibition of P-glycoprotein in human MCF7 assessed as increase in doxorubicin accumulation at 25 uM incubated for 1.5 hrs prior to doxorubicin treatment measured after 1.5 hrs by HPLC analysis; conditions: mcf7, 1.5 h
# NCI/ADR-RES [4] = assay: Induction of nitric oxide release in human MCF7/ADR cells at 25 uM by Griess method; assay type: functional, cell-based
# [5] = target: T1, ATP-dependent translocase ABCB1; assay: Inhibition of P-glycoprotein overexpressed in human MCF7/ADR cells assessed as increase in doxorubicin accumulation at 25 uM incubated for 1.5 hrs prior to doxorubicin treatment measured after 1.5 hrs by HPLC analysis in presence of hemoglobin; assay type: cell-based; conditions: nci/adr-res
# [6] = target: T1, ATP-dependent translocase ABCB1; assay: Inhibition of P-glycoprotein in human MCF7 assessed as increase in doxorubicin accumulation at 25 uM incubated for 1.5 hrs prior to doxorubicin treatment measured after 1.5 hrs by HPLC analysis in presence of hemoglobin; conditions: mcf7, 1.5 h
# [7] = target: T1, ATP-dependent translocase ABCB1; assay: Inhibition of P-glycoprotein overexpressed in human Caco2 cells assessed as increase in digoxin accumulation at 5 to 25 uM incubated for 1.5 hrs prior to digoxin treatment measured after 1.5 hrs by LC/MS/MS analysis in presence of hemoglobin; assay type: cell-based; conditions: caco-2, 1.5 h
# [8] = target: T1, ATP-dependent translocase ABCB1; assay: Inhibition of P-glycoprotein overexpressed in human Caco2 cells assessed as increase in digoxin permeability at 25 uM incubated for 90 mins prior to digoxin treatment measured after 90 mins by LC/MS/MS analysis; assay type: cell-based; conditions: caco-2, 1.5 h
# [9] = target: T1, ATP-dependent translocase ABCB1; assay: Inhibition of P-glycoprotein overexpressed in human Caco2 cells assessed as decrease in digoxin efflux at 25 uM incubated for 90 mins prior to digoxin treatment measured after 90 mins by LC/MS/MS analysis; assay type: cell-based; conditions: caco-2, 1.5 h
# [10] = Downregulation of doxorubicin-induced P-glycoprotein expression in human MCF7/ADR cells at 25 uM after 48 hrs by Western blot analysis; assay type: functional, cell-based; conditions: NCI/ADR-RES
# MCF7 = assay: Antiproliferative activity against human MCF7 up to 25 uM cells after 48 hrs by MTT assay; assay type: functional, cell-based
# NCI/ADR-RES [11] = assay: Antiproliferative activity against human MCF7/ADR up to 25 uM cells after 48 hrs by MTT assay; assay type: functional, cell-based
# T1 sequence (P08183 whole entry): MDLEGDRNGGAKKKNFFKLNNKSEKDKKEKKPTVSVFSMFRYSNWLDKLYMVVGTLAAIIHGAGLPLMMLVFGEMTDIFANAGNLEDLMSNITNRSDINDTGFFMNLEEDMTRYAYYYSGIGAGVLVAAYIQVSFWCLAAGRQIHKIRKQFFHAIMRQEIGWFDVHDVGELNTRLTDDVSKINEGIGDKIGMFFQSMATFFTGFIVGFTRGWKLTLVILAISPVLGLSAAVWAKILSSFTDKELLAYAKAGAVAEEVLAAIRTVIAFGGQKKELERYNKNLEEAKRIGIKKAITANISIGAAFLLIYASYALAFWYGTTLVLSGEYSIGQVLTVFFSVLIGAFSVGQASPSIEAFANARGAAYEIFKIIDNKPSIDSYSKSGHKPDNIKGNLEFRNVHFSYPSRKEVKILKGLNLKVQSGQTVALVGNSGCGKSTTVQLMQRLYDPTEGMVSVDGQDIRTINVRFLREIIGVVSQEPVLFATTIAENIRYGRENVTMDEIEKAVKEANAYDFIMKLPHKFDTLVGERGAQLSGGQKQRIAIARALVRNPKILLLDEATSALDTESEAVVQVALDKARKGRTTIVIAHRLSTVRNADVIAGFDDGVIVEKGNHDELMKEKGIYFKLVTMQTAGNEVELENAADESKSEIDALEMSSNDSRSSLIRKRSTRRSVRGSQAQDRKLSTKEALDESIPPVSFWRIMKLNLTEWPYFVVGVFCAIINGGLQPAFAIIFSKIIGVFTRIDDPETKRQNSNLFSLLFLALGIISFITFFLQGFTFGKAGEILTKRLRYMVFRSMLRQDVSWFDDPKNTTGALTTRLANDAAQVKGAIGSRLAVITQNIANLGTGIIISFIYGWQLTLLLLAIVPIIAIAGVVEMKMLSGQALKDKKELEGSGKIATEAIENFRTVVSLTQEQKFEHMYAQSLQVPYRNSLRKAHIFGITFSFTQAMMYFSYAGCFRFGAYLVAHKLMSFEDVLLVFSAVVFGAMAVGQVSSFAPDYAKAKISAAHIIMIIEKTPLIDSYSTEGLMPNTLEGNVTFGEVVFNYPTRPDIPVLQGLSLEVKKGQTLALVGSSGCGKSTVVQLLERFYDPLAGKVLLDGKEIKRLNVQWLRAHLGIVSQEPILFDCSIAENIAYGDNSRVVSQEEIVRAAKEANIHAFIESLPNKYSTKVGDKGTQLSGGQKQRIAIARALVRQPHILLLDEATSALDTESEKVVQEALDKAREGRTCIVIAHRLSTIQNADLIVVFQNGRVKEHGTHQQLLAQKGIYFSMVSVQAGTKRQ
smiles,measurement,setting,value
COC(=O)c1cc(OC)c2c(c1-c1c(C(=O)NCCC(=O)OCCOc3no[n+]([O-])c3S(=O)(=O)c3ccccc3)cc(OC)c3c1OCO3)OCO2,IC50,HepG2,1.35 µM
COC(=O)c1cc(OC)c2c(c1-c1c(C(=O)NCCC(=O)OCCCOc3no[n+]([O-])c3S(=O)(=O)c3ccccc3)cc(OC)c3c1OCO3)OCO2,IC50,HepG2,1.14 µM
O=c1[nH]cc(F)c(=O)[nH]1 [FLUOROURACIL],IC50,HepG2,15.9 µM
C[C@H](N)C(=O)OCCCCOc1no[n+]([O-])c1S(=O)(=O)c1ccccc1,inhibition (INH),[1],Active
COC(=O)c1cc(OC)c2c(c1-c1c(C(=O)NCCC(=O)OC(C)(C)CCOc3no[n+]([O-])c3S(=O)(=O)c3ccccc3)cc(OC)c3c1OCO3)OCO2,IC50,HepG2,1.36 µM
COC(=O)c1cc(OC)c2c(c1-c1c(C(=O)NCCC(=O)OC(C)CCOc3no[n+]([O-])c3S(=O)(=O)c3ccccc3)cc(OC)c3c1OCO3)OCO2 (configuration not stated),IC50,HepG2,1.15 µM
COC(=O)c1cc(OC)c2c(c1-c1c(C(=O)NCCC(=O)OCCOCCOc3no[n+]([O-])c3S(=O)(=O)c3ccccc3)cc(OC)c3c1OCO3)OCO2,IC50,HepG2,1.88 µM
COC(=O)c1cc(OC)c2c(c1-c1c(C(=O)NCCC(=O)NCCOc3no[n+]([O-])c3S(=O)(=O)c3ccccc3)cc(OC)c3c1OCO3)OCO2,IC50,HepG2,1.25 µM
COC(=O)c1cc(OC)c2c(c1-c1c(C(=O)NCCC(=O)OCCCCOc3no[n+]([O-])c3S(=O)(=O)c3ccccc3)cc(OC)c3c1OCO3)OCO2,IC50,HepG2,1.36 µM
C[C@H](N)C(=O)OCCOCCOc1no[n+]([O-])c1S(=O)(=O)c1ccccc1,inhibition (INH),[1],Active
COC(=O)c1cc(OC)c2c(c1-c1c(C(=O)N[C@@H](C)C(=O)OCCCCOc3no[n+]([O-])c3S(=O)(=O)c3ccccc3)cc(OC)c3c1OCO3)OCO2,IC50,HepG2,1.21 µM
same,inhibition (INH),[2],Dose-dependent effect
same,inhibition (INH),[1],Active
same,inhibition (INH),[3],Not Active
same,Activity,NCI/ADR-RES [4],Active
same,inhibition (INH),[5],Not Active
same,inhibition (INH),[6],Not Active
same,inhibition (INH),[7],Not Active
same,inhibition (INH),[8],Active
same,inhibition (INH),[9],Active
same,Activity,[10],Active
same,Activity,MCF7,inactive
same,Activity,NCI/ADR-RES [11],inactive
COC(=O)c1cc(OC)c2c(c1-c1c(C(=O)N[C@@H](C)C(=O)OCCOCCOc3no[n+]([O-])c3S(=O)(=O)c3ccccc3)cc(OC)c3c1OCO3)OCO2,IC50,HepG2,1.49 µM
same,inhibition (INH),[2],Dose-dependent effect
same,inhibition (INH),[1],Active
same,inhibition (INH),[3],Not Active
same,Activity,NCI/ADR-RES [4],Active
same,inhibition (INH),[5],Not Active
same,inhibition (INH),[6],Not Active
same,inhibition (INH),[7],Not Active
same,inhibition (INH),[8],Active
same,inhibition (INH),[9],Active
same,Activity,[10],Active
same,Activity,MCF7,inactive
same,Activity,NCI/ADR-RES [11],inactive
COC(=O)c1cc(OC)c2c(c1-c1c(C(=O)N[C@@H](C)C(=O)OCCCOc3no[n+]([O-])c3S(=O)(=O)c3ccccc3)cc(OC)c3c1OCO3)OCO2,IC50,HepG2,1.25 µM
